94 compounds from PubChem BioAssay AID1902 (Broad Institute, 2009) can be followed below.

Calls of active or inactive are those of the source.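 The calls were made as follows: active = EC50 no more than a set limit of log units above the highest dose; inactive = the rest.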 A value given as a limit tells only on which side of the number the result lay.

The assay deals with S. pyogenes SKKanGAS, kanamycin survival, BacTiterGlo, 6 h. Nature of the assay: SKKanGAS survival reduction under kanamycin, dose response, streptokinase promoter inhibitor project, SKKanGAS strain, luminescence, dose confirmation (AID 1902).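 Also: lower survival reflects blocked streptokinase promoter driving kanamycin resistance gene.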
As a reminder, the EC50 is the concentration giving half of the maximal effect. `OC(COCC(F)(F)C(F)(F)C(F)(F)C(F)F)Cn1c2ccc(Cl)cc2c2cc(Cl)ccc21` (centres undefined): the EC50 was 2.16 µM.

Regarding `Clc1ccc(COn2c(-c3ccc(Cl)cc3)nc3ccccc32)cc1`, the EC50 was 6.12 µM.

Turning to `Cc1nc(N)sc1N=Nc1ccc(F)cc1`, the EC50 was 2.13 µM. For `N#Cc1c(Nc2cccc(F)c2)sc2c(O)cc(=O)[nH]c12` the value was 0.861 µM; for `Cc1ccc(C(C)C)cc1NC(=O)Nc1ccc([N+](=O)[O-])cc1`, 3.75 µM. For `COC(=O)C1=C(C)NC2=C(C(=O)c3ccccc32)C1c1ccc(-c2ccc(C(=O)O)cc2)o1` (centres undefined) the value was 2.76 µM; for `Cc1ccc(NC(=O)c2cc(N3C(=O)C=CC3=O)ccc2N2CCOCC2)cc1Cl`, 11.5 µM; for `Cc1ccc(Cn2nnc3c(=O)[nH]c(C4CCN(S(=O)(=O)c5cc(C)ccc5C)CC4)nc32)cc1`, 6.26 µM. Next, `c1ccc(Nc2nc(N3CCCCC3)nc(N3CCCCC3)n2)cc1`: 8.25 µM; `O=C(Nc1nnc(-c2ccc(Cl)cc2)o1)c1nc2ccccc2s1`: 0.178 µM; `CC(C)(C)c1cc(Cl)c(O)c(NC(=S)NC(=O)c2cccnc2)c1`: 0.346 µM.

As for `CCC(C)Sc1cc(-c2nc3ccc(C)cn3c2NCc2ccccc2)ccc1OC` (centres undefined), the EC50 is 1.42 µM. Take `CC1CC(=O)c2c(cc3c(-c4c(O)cc(O)c5c(O)c6c(cc45)OC(C)CC6=O)c(O)cc(O)c3c2O)O1` (centres undefined): the EC50 is 0.501 µM.

Take `CC1(C)CN=C(Nc2nc3ccccc3s2)S1`: the EC50 is 6.75 µM. As for `Cc1ccccc1-c1cc(C(=O)Nc2sc(C(=O)OC(C)C)c(C)c2C#N)c2ccccc2n1`, the EC50 was 5.49 µM. Turning to `Cc1[nH]n(-c2ccccc2)c(=O)c1/C=N/NC(=O)c1ccccc1F`, the EC50 is 1.12 µM. Take `C/C(=N\NC(=O)COc1ccccc1-c1ccccc1)c1ccccn1`: the EC50 was 0.667 µM. For `CCCCc1nc(N2CCN(C(=O)c3ccco3)CC2)c(C#N)c2c1CCCC2` the value was 6.45 µM. Next, `CCn1c(COc2ccc(C)cc2)nnc1SCc1ccc(C#N)cc1`: > 15 µM (inactive); `O=C(N/N=C/c1c(O)n(Cc2ccco2)c(=O)[nH]c1=O)c1ccccc1O`: 2.81 µM; `CCOC(=O)c1sc(=S)n2c1[nH]c(=O)c1ccc(C(=O)OC)cc12`: 3.81 µM. With `Oc1c(C(c2ccccn2)N2CCCCC2)cc(Cl)c2cccnc12` (centres undefined), the EC50 is 8.88 µM. For `O=C(Nc1nc(-c2ccccn2)cs1)C1CC1` the value was 1.33 µM; for `COc1cc(OC)cc(C(=O)Nc2nc(-c3ccccc3)c(-c3ccccc3)o2)c1`, 0.629 µM; for `O=C(/C=C/c1ccccc1)NC(NC(=S)Nc1ccc(Cl)cc1)C(Cl)(Cl)Cl` (centres undefined), 4.16 µM. For `CCOc1ccc(Cl)cc1S(=O)(=O)n1cnc2cc(C)c(C)cc21` the value was 4.77 µM. Next, `O=C(/C=C/c1ccccc1)NCCc1ccccc1`: > 15 µM (inactive). `CCOC(=O)c1sc(NC(=O)CNCc2ccccn2)c(C(=O)OCC)c1C`: the EC50 is less than 0.06 µM. With `N#CC(C#N)=NNc1ccc([N+](=O)[O-])cc1`, the EC50 was 3.72 µM. For `COc1cccc(/C=N/Nc2cc(N3CCOCC3)ncn2)c1O` the value was 7.64 µM; for `O=C(NNC(=S)NC(=O)c1ccccc1)c1cccc([N+](=O)[O-])c1`, 5.82 µM.

For `Cc1cccc2nc(COc3ccc4ccccc4c3Br)cn12`, the EC50 is 4.94 µM. For `Cc1cc(C)n(C(=O)/C(C#N)=N/Nc2cc(Cl)cc(Cl)c2)n1` the value was 1.76 µM; for `Cc1cc(C)nc(NC(N)=NCCc2c[nH]c3ccccc23)n1`, 11.6 µM. For `COC(=O)C(C)NC(=S)N1CCN(c2c(F)cc3c(=O)c(C(=O)O)cn(C4CC4)c3c2OC)CC1C` (centres undefined), the EC50 was 3.31 µM. As to `Cc1ccccc1OCC(=O)Nc1ccccc1N1CCC(C)CC1`, the EC50 is 7.48 µM. Next, `COc1ccccc1N1CCN(C(=O)/C=C/c2ccc(C)cc2)CC1`: > 15 µM (inactive); `CCCN(CC(=O)Nc1cc(Cl)cc(Cl)c1)CC(=O)Nc1ccc(F)c(F)c1F`: 4.87 µM.

For the compound `S=c1[nH]nc(C2CCCCC2)n1/N=C/c1cccc(Cl)c1Cl`, the EC50 was 5.59 µM. Consider `Oc1ccc2ccccc2c1/C=N/Nc1nnc(-c2ncc[nH]2)c2ccccc12`, for which the EC50 is 1.55 µM. For the compound `COc1ccc(-c2cc(C(=O)NNC(=S)NC(=O)c3c(-c4ccccc4)noc3C)[nH]n2)cc1`, the EC50 is 0.2 µM. As to `O=C(NCc1ccc2c(c1)OCO2)C(=O)NCC1OCCN1S(=O)(=O)c1ccc(Br)cc1` (centres undefined), the EC50 is > 15 µM (inactive).

For the compound `Cc1cc(C)c(S(=O)(=O)/N=C2\C=C(Nc3ccc(C(=O)O)cc3)C(=O)c3ccccc32)c(C)c1`, the EC50 is 1.16 µM. Next, `COc1cc(/C(C)=C/c2ccccc2)c2c(c1)oc1ccccc12`: 4.04 µM; `O=C(c1ccc(F)cc1)c1cc2ccc(O)cc2oc1=O`: 7.31 µM. Regarding `O=C(Nc1nnc(-c2ccncc2)o1)c1ccc2ccccc2c1`, the EC50 is 5.02 µM. For `OC(CNCC1CCCO1)Cn1c2ccc(Br)cc2c2cc(Br)ccc21` (centres undefined) the value was 3.47 µM. `CCCOC(=O)c1ccc(Oc2c(-c3ccc(OC)cc3O)n[nH]c2C)cc1`: the EC50 was 13.5 µM. Next, `CCn1c(=O)c(C(=O)NNC(=O)c2ccc(Cl)cc2Cl)c(O)c2ccccc21`: 1.99 µM; `Cc1cc2oc(=O)cc(CN(C)Cc3ccccc3)c2cc1C(C)C`: 4.52 µM; `COC(=O)c1c(C)[nH]c(C(=O)OCC(=O)N(CC(C)C)c2c(N)n(Cc3ccccc3)c(=O)[nH]c2=O)c1C`: 9.34 µM. On to `NNc1nc(-c2ccccc2)c2cc(Br)ccc2n1`, for which the EC50 was 9.12 µM. Next, `O=C(CSc1nnc(CNC(=O)c2c(F)cccc2F)o1)NCCc1ccccc1`: > 15 µM (inactive); `CC(C)[C@@H](C(=O)NC1CCCC1)N1C(=O)N2CCc3c([nH]c4ccccc34)[C@@]2(C)C1=O`: > 15 µM (inactive); `CC(C)Sc1cc(N2CCCC2)nc(-c2ccc(F)cc2)n1`: 5.9 µM. For `COc1ccc(Cn2c(SCc3ccc(C)cc3)nc3cc(OC)c(OC)cc3c2=N)cc1Cl` the value was 2.65 µM; for `Cc1cc(C)n(-c2nc(Nc3ccccc3C(F)(F)F)nc(-n3nc(C)cc3C)n2)n1`, 2.67 µM. Next, `CC1CCN(c2nc(N3CCCCC3)nc(N3CCCCC3)n2)CC1`: 3.02 µM. Turning to `Cc1cc(C)c(OCC(=O)Nc2nc(-c3ccccn3)cs2)c(C)c1`, the EC50 is 1.4 µM. For the compound `CC1=NN(c2ccccc2)C(=O)/C1=C/c1c(O)n(-c2ccc(F)c(Cl)c2)[nH]c1=O`, the EC50 is 3.61 µM. Next, `O/N=C(\c1ccc(Cl)cc1Cl)c1ncc(C(F)(F)F)cc1Cl`: 2.74 µM; `COc1ccc(CN(C)S(=O)(=O)c2ccc3c(c2)OCCO3)cc1`: > 15 µM (inactive); `Cn1c(O)c(N=NC(=O)c2cc(-c3cccs3)nc3ccccc23)c2ccccc21`: 2.57 µM. For `CCOC(=O)c1ccc(NC(=O)c2sc3nc4n(c(=O)c3c2C)CCC4)cc1` the value was 1.99 µM. Next, `C=C(CC1([C@@H](NP(=O)(c2ccccc2)c2ccccc2)[C@H]2C[C@@H]2CCCC)CC1)c1ccccc1`: 3.64 µM. Take `CCOC(=O)c1sc(NC(=O)c2cc(-c3ccccc3C)nc3ccccc23)c(C#N)c1C`: the EC50 is 1.36 µM. On to `CCCCn1c(-c2ccco2)nc2oc3ccccc3c(=O)c2c1=O`, for which the concentration for a half-maximal effect (EC50) is 15.1 µM. With `CC1CCc2c(sc3nc(C4CC4)nc(N4CCN(C(=O)c5ccco5)CC4)c23)C1` (centres undefined), the EC50 was 3.84 µM. In the case of `COc1ccc(N(CC(=O)NCCSCc2cccc(Cl)c2)S(C)(=O)=O)cc1Cl`, the EC50 is 4.72 µM. Next, `CCCc1nc2ccccc2c(C(=O)OCC(=O)Nc2ccc(S(=O)(=O)N3CCOCC3)cc2)c1CC`: 7.15 µM; `CCc1ccc(CNc2ccc3c(c2)ncn3C(C)(C)C)cc1`: 3.3 µM; `COc1ccc(-c2sc3ccc(OC)cc3c2C#CCCO)cc1`: 9.27 µM. Next, `COc1ccc(C(=O)NC(=S)NNC(=O)c2ccc(C)cc2)cc1`: 0.137 µM; `CC(Oc1ccc2ccccc2c1)C(=O)NNC(=S)NC(=O)c1ccco1` (centres undefined): 0.149 µM. Next, `O=C(NC(NC(=S)Nc1ccc(Cl)cc1Cl)C(Cl)(Cl)Cl)c1cccc([N+](=O)[O-])c1` (centres undefined): 0.99 µM; `O=C(N/N=C/c1c(O)ccc2ccccc12)Nc1ccccc1`: 7.74 µM; `COc1ccccc1C(=O)NNC(=S)NC(=O)c1sc2ccccc2c1Cl`: less than 0.06 µM. `CCSc1nnc(NC(=O)c2ccccn2)s1`: the EC50 is 4 µM.

For `O=c1c2c(nc(NCCO)n1CC1CCCCC1)-c1ccccc1CC21CCCC1`, the EC50 is 4.16 µM. Next, `c1ccc(N(c2ccccc2)c2nc(N3CCCC3)nc(-n3ccnc3)n2)cc1`: 6.12 µM; `CCCC(=O)NCCc1ccc(F)cc1`: > 15 µM (inactive). Regarding `Cc1ccc(C(=O)NC(=S)NNC(=O)c2cccc([N+](=O)[O-])c2)cc1`, the EC50 is 1.69 µM. For `O=C(NNC(=S)NC(=O)c1cccnc1)c1ccc(Cl)cc1`, the 50% effective concentration (EC50) was 2.64 µM.

With `Cc1ccnc(NC(=S)N2CCN(c3cccc(C(F)(F)F)c3)CC2)c1`, the EC50 is 1.65 µM. As for `O=C(C[n+]1ccc2ccccc2c1)Nc1cc(C(F)(F)F)ccc1Cl`, the EC50 was > 15 µM (inactive). For `COc1cc(C)ccc1OCCCOc1ccccc1Br` the value was 5.9 µM.

Turning to `CCOC(=O)c1ccc(NC(=O)CC2S/C(=N/N=C/c3c[nH]c4ccccc34)NC2=O)cc1` (centres undefined), the EC50 is 7.73 µM. Next, `COc1ccccc1/C=C/c1ccc2cccc(O)c2n1`: 1.18 µM; `CCOC(=O)c1ccc(NC(=O)c2nc[nH]c2C(=O)N[C@@H](CCCCNC(=O)OC(C)(C)C)C(=O)OC(C)(C)C)cc1`: 4.72 µM; `Cc1cccc(C(=O)NC(C(=O)Nc2nc(-c3ccccn3)cs2)C(C)C)c1` (centres undefined): 5.46 µM. Take `Oc1c(C(Nc2cccc(C(F)(F)F)c2)c2cccnc2)ccc2cccnc12` (centres undefined): the EC50 is 1.53 µM. On to `CCCc1cc(C(=O)Nc2ccc(C(=O)c3ccc(F)cc3)cc2)n(C)n1`, for which the EC50 was > 15 µM (inactive).

Consider `Cc1ccc(-c2cc(C(=O)Nc3ccc(S(=O)(=O)Nc4cc(C)on4)cc3)c3ccccc3n2)c(C)c1`, for which the EC50 is 5.67 µM. For `CCCCCCn1c(=O)c(C(=O)N/N=C/c2cccc(F)c2)c(O)c2ccccc21` the value was 2.11 µM.
